From US4997771A, “Method for measuring the BZ-1 receptor binding activity in a test sample or test compound” (Schering Corporation, priority 1987, dated 1991)

Assays:
[1] = target: T1, ^3 H-2-oxo-quazepam binding sites (BZ-1 receptors) in cerebellum (Rattus norvegicus, UniProt P18508+P62813); assay: ^3 H-2-oxo-quazepam competition binding, cerebellum
T1 construct: Cerebral cortex and cerebellum were dissected on ice and homogenized; tissue Charles River Breeding Laboratories (rats); host or cells: rat cerebellum synaptic membranes (washed P2 pellet)
Protocol: (§1) Male Spraque-Sawley rats (200 to 250 gms) from Charles River Breeding Laboratories, Mass., were used to obtain brain tissue. Animals were decapitated and their brains removed. Synaptic membranes were obtained following the procedure disclosed in Life Sc., 35, 105 (1984). Cerebral cortex and cerebellum were dissected on ice and homogenized in 20 volumes of ice cold 0.32 M sucrose using a glass homogenizer fitted with a teflon pestle. The homogenates were then centrifuged at 48,000 X g for 10 min, and the resultant P2 pellets were washed twice by re-centrifugation in 50 mM Na/K phosphate buffered saline (pH 7.4). The washed pellets were pooled and then resuspended in the same buffer to a final concentration of 50 mg of original tissue weight/ml.
(§2) Total reaction mixture volume was 1 ml which included: (a) 100 μl of either ^3 H-flunitrazepam or ^3 H-2-oxo-quazepam (tritiated at the α-carbon of the trifluoroethyl substituent located at the #1 position), yielding a final concentration of 0.5 nM (b) 100 μl of various concentrations of competing drugs dissolved or suspended in 50 mM phosphate buffered saline (pH 7.4) containing 4 mg/ml methylcellulose (c) 800 μl of tissue homogenate diluted such that a total of 5 mg of tissue was present in the final reaction mixture. In each competition experiment 25 to 30 concentrations of drug were used to obtain a complete dose response curve.
(§3) Incubations were carried out at 0° C. for 90 minutes. Samples were then filtered under vacuum through 25 mm diameter Whatman GF/B filters on a Millipore 1225 Sampling Manifold and quickly washed with 3×5 ml of ice-cold PBS buffer. Filter-bound radioactivity was quantified through liquid scintillation counting following overnight solubilization of the receptor-radioligand complex in "Scintosol" scintillation cocktail (Isolab, Inc.).
Compound assisted curve fitting was conducted on an Apple IIe computer using a program described in Br. J. Pharmacol., 80, 582P (1983) and Trends in Pharmaceutical Sci., 5, 47, (1984). […]

[2] = test system: ^3 H-flunitrazepam binding sites (benzodiazepine receptors BZ-1 and BZ-2) in rat cortex; assay: ^3 H-flunitrazepam competition binding, rat cortex; conditions: for difference in binding affinity for two BZ receptors (BZ-1 and BZ-2): vs ^3 H-flunitrazepam, average; for populations of binding sites distinguished: unlabeled drug vs ^3 H-flunitrazepam
Protocol: as §1, §2, §3
(§4) Compound assisted curve fitting was conducted on an Apple IIe computer using a program described in Br. J. Pharmacol., 80, 582P (1983) and Trends in Pharmaceutical Sci., 5, 47, (1984). Enhancements were made to the program to allow disk storage of data and printing of the program to allow disk storage of data and printing of the graphics display. The program determines whether the results from individual competition experiments are best interpreted on the basis of a 1 or 2 site model and also provides the most probable proportions of radioligand bound to each of the sites.
(§5) Selection among models was made by comparing the sum of squares residual values for the best single and 2-site models and determining through a partial F-test evaluation whether 2-site modelling produced a statistically meaningful (P<0.05) improvement in fit as described in Anal. Biochem., 107, 220 (1980). If not, the best single site model was considered the model of choice.

[3] = target: benzodiazepine sites (BZ-1 receptors) in rat cortex (Rattus norvegicus, UniProt P18508+P62813); assay: Saturation binding of ^3 H-2-oxo-quazepam in rat cortex; conditions: for non-specific binding: 0.5 nM
Protocol: as §1
Saturation binding studies were conducted utilizing ^3 H-2-oxo-quazepamin rat cortex over a range of concentrations from 0.1 to 30 nM. The separation between specific and non-specific binding indicated the suitability of ^3 H-2-oxo-quazepam as a radioligand for benzodiazepine sites. Specific binding was defined as the difference between total binding and binding in the presence of 100 nM unlabeled clonazepam. At a concentration of 0.5 nM, non-specific binding for the radioligand constituted only 5 to 10 percent of total binding.

[4] = target: T2, ^3 H-2-oxo-quazepam binding sites (BZ-1 receptors) in rat cortex (Rattus norvegicus, UniProt P18508+P62813); assay: ^3 H-2-oxo-quazepam competition binding, rat cortex; conditions: for best-fit curve model: vs ^3 H-2-oxo-quazepam 0.5 nM
T2 construct: Cerebral cortex and cerebellum were dissected on ice and homogenized; tissue Charles River Breeding Laboratories (rats); host or cells: rat cerebral cortex synaptic membranes (washed P2 pellet)
Protocol: as §1, §2, §3, §4, §5

[5] = target: T3, ^3 H-flunitrazepam binding sites in rat cerebellum (BZ-1) (Rattus norvegicus, UniProt P18508+P62813); assay: ^3 H-flunitrazepam competition binding, rat cerebellum
T3 construct: Cerebral cortex and cerebellum were dissected on ice and homogenized; tissue Charles River Breeding Laboratories (rats); host or cells: rat cerebellum synaptic membranes (washed P2 pellet)
Protocol: as §1, with “weight/ml. […]” for “weight/ml.”
Incubations were carried out at 0° C. for 90 minutes. […] Filter-bound radioactivity was quantified through liquid scintillation counting following overnight solubilization of the receptor-radioligand complex in "Scintosol" scintillation cocktail (Isolab, Inc.). […]

[6] = test system: benzodiazepine (BZ) receptors in brain; conditions: literature; cited from earlier work
[7] = doses far above tranquilizing doses; cited from earlier work
[8] = cats; doses below those that caused ataxia; cited from earlier work

With `O=C1CN=C(c2ccccc2F)c2cc(Cl)ccc2N1CC(F)(F)F` [2-oxo-quazepam, 7-chloro-1-(2,2,2-trifluoroethyl)-5-(2-fluorophenyl)-1,3-dihydro-2H-1,4 benzodiazepine-2-one] as the molecule, how does the IC50 [1] read?
Its IC50 is 13.6 nM.

And the “relative potency vs quazepam” value ([1]; cerebellum, vs ^3 H-2-oxo-quazepam)?
The value was 19 times.

And the “relative proportion of ^3 H-flunitrazepam binding sites, first-named subpopulation” value ([2]; rat cortex)?
The value was 55%.

And the “relative proportion of ^3 H-flunitrazepam binding sites, second-named subpopulation” value ([2]; rat cortex)?
Its value is 45%.

What about the “difference in binding affinity for two BZ receptors (BZ-1 and BZ-2)” value ([2]; rat cortex) of the same molecule?
The value was 22 fold.

And the “populations of binding sites distinguished” value ([2]; rat cortex)?
The value was “distinguished two subpopulations”.

And the IC50 ([2]; vs ^3 H-flunitrazepam 0.5 nM, cortex, 0° C., 90 minutes, read-out: IC50, high affinity component)?
Its IC50 is 9.3 nM.

What about the non-specific binding [3] of the same molecule?
The non-specific binding was < 5%.

What about the IC50 [4] of the same molecule?
Its IC50 is 16.8 nM.

What about the “relative potency vs quazepam” value ([4]; cortex, vs ^3 H-2-oxo-quazepam) of the same molecule?
Its value is 6 times.

And the “BZ-1 selectivity of binding” value ([4]; low concentrations (0.5 nM))?
The value was “binds BZ-1 receptors almost exclusively”.

And the best-fit curve model [4]?
Its best-fit curve model is “single site curve fitting model”.

And the “potency in cortex compared with cerebellum” value ([4]; vs ^3 H-2-oxo-quazepam, cortex and cerebellum)?
Its value is “roughly equipotent”.

What about the IC50 [5] of the same molecule?
Its IC50 is 8.8 nM.

What about the “populations of binding sites distinguished” value ([5]; vs ^3 H-flunitrazepam, cerebellum) of the same molecule?
Its value is “did not distinguish subpopulations of binding sites”.

What about the “subpopulations of BZ receptors distinguished” value [6] of the same molecule?
Its value is “distinguish two subpopulations of benzodiazepine (BZ) receptors”.

For `[3H]C([3H])(N1C(=O)CN=C(c2ccccc2F)c2cc(Cl)ccc21)C(F)(F)F` [^3 H-2-oxo-quazepam, 7-Chloro-1-^3 H-(2,2,2-Trifluoroethyl)-5-(2-Fluorophenyl)-1,3-Dihydro-2H-1,4 Benzodiazepine-2-One], which non-specific binding [3] is on record?
The non-specific binding was 5 to 10%.

What about the “non-specific binding vs concentration” value ([3]; 0.1 to 30 nM, even after saturation of BZ-1 receptors) of the same molecule?
The value was “linear relationship with increasing concentration”.

Which ataxic effects [7] does the source give for `O=C1CN=C(c2ccccc2)c2cc(Cl)ccc2N1CC(F)(F)F` [halazepam] here?
Its ataxic effects is “only weak ataxic effects”.

Which IC50 [1] does the source give for `Fc1ccccc1C1=NCC(=S)N(CC(F)(F)F)c2ccc(Cl)cc21` [quazepam, 7-chloro-1-(2,2,2-trifluorethyl)-5-(2-fluorophenyl)-1,3-dihydro-2H-1,4 benzodiazpeine-2-thione, reference compound] here?
Its IC50 is 258 nM.

And the “difference in binding affinity for two BZ receptors (BZ-1 and BZ-2)” value ([2]; rat cortex)?
Its value is 54 fold.

What about the “populations of binding sites distinguished” value ([2]; rat cortex) of the same molecule?
The value was “distinguished two subpopulations”.

And the behavioural effect [8]?
The behavioural effect was “only drowsiness and sleep”.

And the IC50 [4]?
The IC50 was 101 nM.

And the best-fit curve model [4]?
Its best-fit curve model is “single site curve fitting model”.

Which “receptor subtype specificity of binding” value ([2]; benzodiazepine receptors) does the source give for `CN1C(=O)CN=C(c2ccccc2F)c2cc([N+](=O)[O-])ccc21` [flunitrazepam, reference compound] here?
Its value is “binds non-specifically to benzodiazepine receptors”.

And the “populations of binding sites distinguished” value ([2]; rat cortex)?
Its value is “only a single uniform population of sites”.
